# Source: US20090036448A1, “PYRIMIDINE DERIVATIVES AND METHODS OF TREATMENT RELATED TO THE USE THEREOF” (TAISHO PHARMECUTICAL CO., LTD., priority 2004, published 2009)
# Where a name gives a salt, the structure may show the parent alone.
# Molecular target: T1, MCH receptor (Homo sapiens, UniProt Q99705)
# Assay: FLIPR/FDSS6000 functional assay: intracellular Ca2+ changes evoked by MCH
# Type: cell-based
# Details: antagonist activity, 50 nM of MCH, [Ca2+]i by FLIPR or FDSS; read-out: IC50
# From the text: Subsequently, a functional based assay was used to confirm the lead hits, referred to as FLIPR™ (the Fluorometric Imaging Plate Reader) and FDSS6000™ (Functional Drug Screening System). This assay utilized a non-endogenous, constitutively active version of the MCH receptor.
# The FLIPR and FDSS assays are able to detect intracellular Ca^2+ concentration in cells, which can be utilized to assess receptor activation and determine whether a candidate compound is an, for example, antagonist, inverse agonist or agonist to a Gq-coupled receptor. The concentration of free Ca^2+ in the cytosol of any cell is extremely low, whereas its concentration in the extracellular fluid and endoplasmic reticulum (ER) is very high. Thus, there is a large gradient tending to drive Ca^2+ into the cytosol across both the plasma membrane and ER. The FLIPR™ and FDSS6000™ systems (Molecular Devices Corporation, HAMAMATSU Photonics K.K.) are designed to perform functional cell-based assays, such as the measurement of intracellular calcium for high-throughput screening. The measurement of fluorescent is associated with calcium release upon activation of the Gq-coupled receptors.
# Fluorometric Imaging Plate Reader system was used to allow for rapid, kinetic measurements of intracellular fluorescence in 96 well microplates (or 384 well microplates). Simultaneous measurements of fluorescence in all wells can be made by FLIPR or FDSS6000™ every second with high sensitivity and precision. These systems are ideal for measuring cell-based functional assays such as monitoring the intracellular calcium fluxes that occur within seconds after activation of the Gq coupled receptor.
# Briefly, the cells are seeded into 96 well at 5.5×10^4 cells/well with complete culture media (Dulbecco's Modified Eagle Medium with 10% fetal bovine serum, 2 mM L-glutamine, 1 mM sodium pyruvate and 0.5 mg/mL G418, pH 7.4) for the assay next day. On the day of assay, the media is removed and the cells are incubated with 100 μl of loading buffer (4 μM Fluo-4-AM in complete culture media containing 2.5 mM Probenicid, 0.5 mg/ml and 0.2% bovine serum albumin) in 5% CO2 incubator at 37° C. for 1 hr. The loading buffer is removed, and the cells are washed with wash buffer (Hank's Balanced Salt Solution containing 2.5 mM Probenicid, 20 mM HEPES, 0.5 mg/mL and 0.2% bovine serum albumin, pH 7.4). One hundred fifty μl of wash buffer containing various concentrations of test compound is added to the cells, and the cells are incubated in 5% CO2 incubator at 37° C. for 30 min. Fifty μl of wash buffer containing various concentration of MCH are added to each well, and transient changes in [Ca^2+]i evoked by MCH are monitored using the FLIPR or FDSS in 96 well plates at Ex. 488 nm and Em. 530 nm for 290 second. When antagonist activity of compound is tested, 50 nM of MCH is used.
# Use of FLIPR™ and FDSS6000™ can be accomplished by following manufacturer's instruction (Molecular Device Corporation and HAMAMATSU Photonics K.K.).
# T1 sequence (Q99705 whole entry): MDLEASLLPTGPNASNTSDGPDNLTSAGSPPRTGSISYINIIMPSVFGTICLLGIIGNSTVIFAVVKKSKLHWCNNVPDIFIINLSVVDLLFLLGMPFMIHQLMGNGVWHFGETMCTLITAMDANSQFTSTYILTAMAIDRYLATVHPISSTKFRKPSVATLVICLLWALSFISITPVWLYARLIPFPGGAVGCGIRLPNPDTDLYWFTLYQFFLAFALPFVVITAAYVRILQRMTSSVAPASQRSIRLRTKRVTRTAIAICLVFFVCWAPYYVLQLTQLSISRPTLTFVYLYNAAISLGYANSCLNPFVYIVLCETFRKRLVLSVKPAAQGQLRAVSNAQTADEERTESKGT
row,Structure (SMILES),IC50 [nM]
1,"Cc1nc(N[C@H]2CC[C@@H](NC(=O)c3ccc(F)cc3)CC2)cc(N(C)C)n1 [Example 7, N-(cis-4-{[6-(Dimethylamino)-2-methylpyrimidin-4-yl]amino}cyclohexyl)-4-fluorobenzamide hydrochloride]",101

# Same assay, conditions: class by percent of control at 10^−7 M or by IC50; antagonist activity, 50 nM of MCH; read-out: class
row,Structure (SMILES),IC50 [nM]
1,"CN(C)c1cc(N[C@H]2CC[C@@H](NCc3ccc(Br)cc3OC(F)(F)F)CC2)ncn1 [Example 1, N′-(cis-4-{[4-Bromo-2-(trifluoromethoxy)benzyl]amino}cyclohexyl)-N,N-dimethylpyrimidine-4,6-diamine dihydrochloride]",> 200
2,"CN(C)c1cc(N[C@H]2CC[C@@H](NC(=O)c3ccc(F)c(F)c3)CC2)ncn1 [Example 2, N-(cis-4-{[6-(1-Dimethylamino)pyrimidin-4-yl]amino}cyclohexyl)-3,4-difluorobenzamide hydrochloride]",50 to 200
3,"CN(C)c1cc(NC[C@H]2CC[C@@H](NC(=O)c3ccc(F)c(F)c3)CC2)ncn1 [Example 3, N-[cis-4-({[6-(Dimethylamino)pyrimidin-4-yl]amino}methyl)cyclohexyl]-3,4-difluorobenzamide hydrochloride]",> 200
4,"CN(C)c1cc(N[C@H]2CC[C@@H](CNC(=O)c3ccc(F)c(F)c3)CC2)ncn1 [Example 4, N-[(cis-4-{[6-(Dimethylamino)pyrimidin-4-yl]amino}cyclohexyl)methyl]-3,4-difluorobenzamide hydrochloride]",> 200
5,"Cc1nc(N[C@H]2CC[C@@H](NC(=O)c3ccc(F)c(F)c3)CC2)cc(N(C)C)n1 [Example 5, N-(cis-4-{[6-(Dimethylamino)-2-methylpyrimidin-4-yl]amino}cyclohexyl)-3,4-difluorobenzamide hydrochloride]",< 50
6,"Cc1nc(N[C@H]2CC[C@@H](NC(=O)c3ccc(F)c(Cl)c3)CC2)cc(N(C)C)n1 [Example 6, 3-Chloro-N-(cis-4-{[6-(dimethylamino)-2-methylpyrimidin-4-yl]amino}cyclohexyl)-4-fluorobenzamide hydrochloride]",< 50
7,"Cc1nc(N[C@H]2CC[C@@H](NC(=O)c3ccc(F)cc3)CC2)cc(N(C)C)n1 [Example 7, N-(cis-4-{[6-(Dimethylamino)-2-methylpyrimidin-4-yl]amino}cyclohexyl)-4-fluorobenzamide hydrochloride]",50 to 200
8,"Cc1nc(N[C@H]2CC[C@@H](NC(=O)c3ccc(Cl)c(Cl)c3)CC2)cc(N(C)C)n1 [Example 8, 3,4-Dichloro-N-(cis-4-{[6-(dimethylamino)-2-methylpyrimidin-4-yl]amino}cyclohexyl)-benzamide hydrochloride]",< 50
9,"Cc1nc(N[C@H]2CC[C@@H](NC(=O)c3ccc(Cl)c(F)c3)CC2)cc(N(C)C)n1 [Example 9, 4-Chloro-N-(cis-4-{[6-(dimethylamino)-2-methylpyrimidin-4-yl]amino}cyclohexyl)-3-fluorobenzamide hydrochloride]",50 to 200
10,"Cc1nc(N[C@H]2CC[C@@H](NC(=O)c3cc(F)cc(Cl)c3)CC2)cc(N(C)C)n1 [Example 10, 3-Chloro-N-(cis-4-{[6-(dimethylamino)-2-methylpyrimidin-4-yl]amino}cyclohexyl)-5-fluorobenzamide hydrochloride]",< 50
11,"Cc1nc(N[C@H]2CC[C@@H](NC(=O)c3cc(F)c(F)c(F)c3)CC2)cc(N(C)C)n1 [Example 11, N-(cis-4-{[6-(Dimethylamino)-2-methylpyrimidin-4-yl]amino}cyclohexyl)-3,4,5-trifluorobenzamide hydrochloride]",< 50
12,"Cc1nc(N[C@H]2CC[C@@H](NC(=O)c3cncc(Br)c3)CC2)cc(N(C)C)n1 [Example 12, 5-Bromo-N-(cis-4-{[6-(dimethylamino)-2-methylpyrimidin-4-yl]amino}cyclohexyl)-nicotinamide dihydrochloride]",50 to 200
13,"Cc1nc(N[C@H]2CC[C@@H](NC(=O)c3cc(F)cc(F)c3)CC2)cc(N(C)C)n1 [Example 13, N-(cis-4-{[6-(Dimethylamino)-2-methylpyrimidin-4-yl]amino}cyclohexyl)-3,5-difluorobenzamide hydrochloride]",50 to 200
14,"Cc1nc(N[C@H]2CC[C@@H](NC(=O)c3ccc(F)c(C(F)(F)F)c3)CC2)cc(N(C)C)n1 [Example 14, N-(cis-4-{[6-(Dimethylamino)-2-methylpyrimidin-4-yl]amino}cyclohexyl)-4-fluoro-3-(trifluoromethyl)benzamide hydrochloride]",< 50
15,"Cc1nc(N[C@H]2CC[C@@H](NC(=O)c3ccc(C(F)(F)F)c(F)c3)CC2)cc(N(C)C)n1 [Example 15, N-(cis-4-{[6-(Dimethylamino)-2-methylpyrimidin-4-yl]amino}cyclohexyl)-3-fluoro-4-(trifluoromethyl)benzamide hydrochloride]",> 200
16,"Cc1nc(N[C@H]2CC[C@@H](NC(=O)c3ccc(OC(F)(F)F)c(Cl)c3)CC2)cc(N(C)C)n1 [Example 16, 3-Chloro-N-(cis-4-{[6-(dimethylamino)-2-methylpyrimidin-4-yl]amino}cyclohexyl)-4-(trifluoromethoxy)benzamide hydrochloride]",50 to 200
17,"Cc1nc(N[C@H]2CC[C@@H](NC(=O)c3cccc(C(F)(F)F)c3)CC2)cc(N(C)C)n1 [Example 17, N-(cis-4-{[6-(Dimethylamino)-2-methylpyrimidin-4-yl]amino}cyclohexyl)-3-(trifluoromethyl)-benzamide hydrochloride]",< 50

# Molecular target: T1, MCH receptor
# Assay: Receptor binding assay with Radiolabelled MCH Ligand
# Design: expressed in transfected cells; host or cells: 293 cells (human kidney, ATCC), transient transfection; crude membranes
# Details: class by percent of control at 10^-7 M or IC50
# Outline: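 Membranes from 293 cells transiently transfected with human MCH receptor competed test compounds against a radiolabelled MCH ligand in Tris-HCl pH 7.4 with MgCl2 and EDTA for 60–120 min at room temperature. Filtration and scintillation counting followed, with cold MCH defining nonspecific binding. IC50 came from logit-log plots of %B/B0, and Ki from the Cheng-Prusoff equation.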
row,Structure (SMILES),class
1,CCOC(=O)c1c(S(=O)(=O)N[C@H]2CC[C@@H](Nc3cc(N(C)C)nc(C)n3)CC2)c(-c2ccc(Cl)cc2)n(-c2ccccc2)c1C [compound 514],3 (Class 3: The value of percent of control at 10^−7 M was more than 60% or the value of IC50 was more than 200 nM.)
2,Cc1nc(N[C@H]2CC[C@@H](NS(=O)(=O)c3ccc(-c4cc(C(F)(F)F)nn4C)s3)CC2)cc(N(C)C)n1 [compound 515],3 (Class 3: The value of percent of control at 10^−7 M was more than 60% or the value of IC50 was more than 200 nM.)
3,Cc1nc(N[C@H]2CC[C@@H](NS(=O)(=O)c3cccn3-c3ncc(C(F)(F)F)cc3Cl)CC2)cc(N(C)C)n1 [compound 516],3 (Class 3: The value of percent of control at 10^−7 M was more than 60% or the value of IC50 was more than 200 nM.)
4,Cc1nc(N[C@H]2CC[C@@H](NS(=O)(=O)c3ccc(-c4ccon4)s3)CC2)cc(N(C)C)n1 [compound 517],3 (Class 3: The value of percent of control at 10^−7 M was more than 60% or the value of IC50 was more than 200 nM.)
5,COC(=O)c1csc(S(=O)(=O)N[C@H]2CC[C@@H](Nc3cc(N(C)C)nc(C)n3)CC2)c1OC [compound 518],3 (Class 3: The value of percent of control at 10^−7 M was more than 60% or the value of IC50 was more than 200 nM.)
6,Cc1nc(N[C@H]2CC[C@@H](NS(=O)(=O)c3cc(S(=O)(=O)c4ccccc4)cs3)CC2)cc(N(C)C)n1 [compound 519],3 (Class 3: The value of percent of control at 10^−7 M was more than 60% or the value of IC50 was more than 200 nM.)
7,Cc1nc(N[C@H]2CC[C@@H](NS(=O)(=O)c3ccc(Br)s3)CC2)cc(N(C)C)n1 [compound 520],3 (Class 3: The value of percent of control at 10^−7 M was more than 60% or the value of IC50 was more than 200 nM.)
8,Cc1nc(N[C@H]2CC[C@@H](NS(=O)(=O)c3ccc(Cl)c4nonc34)CC2)cc(N(C)C)n1 [compound 521],3 (Class 3: The value of percent of control at 10^−7 M was more than 60% or the value of IC50 was more than 200 nM.)
9,Cc1nc(N[C@H]2CC[C@@H](NS(=O)(=O)c3cccc4cccnc34)CC2)cc(N(C)C)n1 [compound 522],3 (Class 3: The value of percent of control at 10^−7 M was more than 60% or the value of IC50 was more than 200 nM.)
